In ChEMBL document CHEMBL1201862, “PubChem BioAssay data set” (2004):
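Growth conditions: 96-well plates. Treatment: test compound, 48 hours, 5 concentrations. Analysis: linear interpolation between bracketing concentrations; unreached endpoints set to highest concentration. GI50: concentration for 50% inhibition of growth.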 The source made the active and inactive calls. Rule as the data show it: active = GI50 up to about 1.1 µM and inactive = higher.

How the values were obtained:
Test in all cases: DTP human tumour cell line panel, 48 h
[1] = test system: CAKI-1
[2] = test system: COLO 205
[3] = test system: HCC 2998
[4] = test system: HCT-15
[5] = test system: HL-60
[6] = test system: K562
[7] = test system: KM12
[8] = test system: M14
[9] = test system: NCI-H226
[10] = test system: OVCAR-3
[11] = test system: SF-268
[12] = test system: SK-MEL-2
[13] = test system: SN12C
[14] = test system: SW-620
[15] = test system: UACC-62
[16] = test system: RPMI-8226

Measured: GI50

COc1cccc2[s+]snc12
42.4 µM: [4]
inactive: [1] 66.1 µM | [2] > 100 µM | [3] > 100 µM | [5] 23.9 µM | [6] 25.7 µM | [7] 59.6 µM | [8] > 100 µM | [9] > 100 µM | [10] > 100 µM | [11] 34.1 µM | [12] 27.2 µM | [13] 35.5 µM | [14] 29.4 µM | [15] 25.1 µM

O=C(/C=C/c1ccccc1)CC1OC(=O)c2ccccc21 (configuration not stated)
inactive: [2] > 100 µM | [3] > 100 µM | [5] 28.1 µM | [6] 75.5 µM | [7] 40.5 µM | [8] > 100 µM | [9] 22.5 µM | [16] 24.2 µM | [11] > 100 µM | [12] 46.3 µM | [14] 84.3 µM | [15] 26.1 µM
> 100 µM: [4]

COC(=O)C12CCC(CC1=O)C2(C)C (configuration not stated)
> 100 µM: [4]
inactive: [2] > 100 µM | [3] > 100 µM | [5] > 100 µM | [6] > 100 µM | [8] > 100 µM | [9] > 100 µM | [10] > 100 µM | [16] > 100 µM | [13] > 100 µM | [14] > 100 µM | [15] > 100 µM

C#CCC(O)c1ccccc1C(O)CC#C (configuration not stated)
> 100 µM: [4]
inactive: [1] 65.2 µM | [2] > 100 µM | [3] 89.3 µM | [5] > 100 µM | [6] > 100 µM | [7] > 100 µM | [8] > 100 µM | [10] > 100 µM | [16] > 100 µM | [12] 62.1 µM | [13] > 100 µM | [14] > 100 µM | [15] > 100 µM

Cc1cc(N(CCC#N)CCC#N)ccc1/C=C1N=C(/C=C\c2ccccc2)N(NC(=O)CC(=O)Nc2ccccc2Cl)C\1=O
> 100 µM: [4]
inactive: [1] > 100 µM | [2] > 100 µM | [5] > 100 µM | [6] > 100 µM | [7] > 100 µM | [8] > 100 µM | [9] > 100 µM | [10] > 100 µM | [16] > 100 µM | [11] > 100 µM | [12] > 100 µM | [13] > 100 µM | [14] > 100 µM | [15] > 100 µM

O=C1C(=O)N(c2ccc(Cl)cc2)C(=O)C(=O)C1c1nc2ccccc2s1
inactive: [1] > 100 µM | [2] > 100 µM | [3] > 100 µM | [6] > 100 µM | [7] > 100 µM | [8] > 100 µM | [9] > 100 µM | [10] > 100 µM | [16] > 100 µM | [11] > 100 µM | [12] > 100 µM | [13] > 100 µM | [14] > 100 µM | [15] > 100 µM
> 100 µM: [4]

COc1ccc(/C=C\c2cc(OC)c(O[Si](C)(C)C(C)(C)C)c(OC)c2)cc1
inactive: [1] 49.3 µM | [2] 68.9 µM | [3] 26.1 µM | [6] 39.1 µM | [7] 47.2 µM | [8] 45.4 µM | [9] 31.8 µM | [10] 55.5 µM | [16] 27.4 µM | [11] 45.5 µM | [12] 23.9 µM | [13] 39.1 µM | [14] 33.3 µM | [15] 55 µM

CC(=O)OC1CC2(c3ccccc3)C(=O)c3ccccc3N2O1 (configuration not stated)
> 100 µM: [4]
inactive: [2] > 100 µM | [3] > 100 µM | [5] > 100 µM | [6] > 100 µM | [8] > 100 µM | [9] > 100 µM | [16] > 100 µM | [11] > 100 µM | [13] > 100 µM | [14] > 100 µM | [15] > 100 µM

Oc1ccc2ccccc2c1/N=N/c1ccc(F)cc1
> 100 µM: [4]
inactive: [1] > 100 µM | [2] > 100 µM | [3] > 100 µM | [5] > 100 µM | [6] > 100 µM | [7] 72.4 µM | [8] > 100 µM | [10] > 100 µM | [16] > 100 µM | [11] > 100 µM | [12] > 100 µM | [13] 42.7 µM | [14] > 100 µM | [15] > 100 µM

COc1cc(-c2c(C)c(C)nc(OC)c2C#N)cc(OC)c1OC
> 100 µM: [4]
inactive: [2] > 100 µM | [3] > 100 µM | [5] 24.4 µM | [6] 58.7 µM | [7] > 100 µM | [8] > 100 µM | [9] 24.9 µM | [10] > 100 µM | [16] 37.4 µM | [11] > 100 µM | [12] > 100 µM | [13] > 100 µM | [14] > 100 µM | [15] 40.6 µM

N#CC(C#N)c1ccc(C(=O)N2CCC[C@H]2CO)cc1
> 100 µM: [4]
inactive: [1] > 100 µM | [2] > 100 µM | [3] > 100 µM | [5] > 100 µM | [6] > 100 µM | [7] > 100 µM | [8] > 100 µM | [10] > 100 µM | [16] > 100 µM | [11] > 100 µM | [12] > 100 µM | [13] > 100 µM | [14] > 100 µM | [15] > 100 µM

COCCN1C2=CCCCC2=Nc2c1nc(N)[nH]c2=O
> 100 µM: [4]
inactive: [1] > 100 µM | [2] > 100 µM | [3] > 100 µM | [5] > 100 µM | [6] > 100 µM | [7] > 100 µM | [8] > 100 µM | [9] > 100 µM | [10] > 100 µM | [16] > 100 µM | [11] > 100 µM | [13] > 100 µM | [15] > 100 µM

CCCC1N2CCCCC2[C@@H]2c3[nH]c4ccccc4c3CCN12 (some centres not stated)
inactive: [1] > 100 µM | [2] > 100 µM | [3] > 100 µM | [5] > 100 µM | [6] > 100 µM | [8] > 100 µM | [10] > 100 µM | [16] > 100 µM | [11] > 100 µM | [12] > 100 µM | [13] > 100 µM | [14] > 100 µM | [15] 85.1 µM
> 100 µM: [4]

CC1(C)COC(c2cccnc2/C=N/O)=N1
inactive: [1] > 100 µM | [2] > 100 µM | [5] > 100 µM | [6] > 100 µM | [7] > 100 µM | [8] > 100 µM | [9] > 100 µM | [10] > 100 µM | [11] > 100 µM | [12] > 100 µM | [13] > 100 µM | [14] 67.8 µM | [15] > 100 µM
> 100 µM: [4]
